Measured values as given in patent publication US7375086B2, “Modulators of Nod2 signaling” (The Regents of the University of Michigan, priority 2000, dated 2008).
“Also recorded” adds a separate entry of the source.

Tests used:
Nod2 = target: T1, Nod2 (Homo sapiens, UniProt Q9HC29, R703H); experiment: NF-κB reporter assay in HEK293T/HEK293 cells expressing Nod2; assay type: cell-based
T1 construct: ligated to generate an unique cDNA containing the entire open reading frame of Nod2; expressed in transfected cells; host or cells: HEK293T

P268S NOD2 = target: T2, P268S NOD2 (Homo sapiens, UniProt Q9HC29, P268S); experiment: NF-κB reporter assay in HEK293T cells expressing P268S NOD2; assay type: cell-based; conditions: 100 ng/ml MDP
T2 construct: expressed in transfected cells; host or cells: HEK293T
Procedure: (§1) HEK293T cells were transfected with 0.3 μg of pMX-puro expressing normal Nod2 or mutants carrying P268S (SEQ ID NOs:56 (nucleic acid) and 57 (amino acid), P268S/R702W (SEQ ID NOs: 57 (nucleic acid) and 58 (amino acid)), P268S/G908 (SEQ ID NOs: 60 (nucleic acid) and 61 (amino acid)), P268S/L1007fsinsC (SEQ ID NOs: 54 (nucleic acid) and 55 (amino acid)) or empty plasmid (−). Eight hours post-transfection, 100 ng/ml MDP was added to the cultured cells and at 24 hours post-transfection NF-κB activity was determined as described in FIG. 1A. Values represent the normalized mean data ±S.D. of triplicate cultures. The results shown are representative of three separate experiments.

P268S/R702W NOD2 = target: T3, P268S/R702W NOD2 (Homo sapiens, UniProt Q9HC29, P268S/R702W); experiment: NF-κB reporter assay in HEK293T cells expressing P268S/R702W NOD2; assay type: cell-based; conditions: 100 ng/ml MDP
T3 construct: expressed in transfected cells; host or cells: HEK293T
Procedure: as §1

P268S/G908R NOD2 = target: T4, P268S/G908R NOD2 (Homo sapiens, UniProt Q9HC29, G908R/P268S); experiment: NF-κB reporter assay in HEK293T cells expressing P268S/G908R NOD2; assay type: cell-based; conditions: 100 ng/ml MDP
T4 construct: expressed in transfected cells; host or cells: HEK293T
Procedure: as §1

P268S/L1007fsinsC NOD2 = target: T5, P268S/L1007fsinsC NOD2 (Homo sapiens, UniProt Q9HC29, P268S); experiment: NF-κB reporter assay in HEK293T cells expressing P268S/L1007fsinsC NOD2; assay type: cell-based; conditions: 100 ng/ml MDP
T5 construct: expressed in transfected cells; host or cells: HEK293T
Procedure: as §1

NF-κB = NF-κB binding activity by EMSA in nuclear extracts of PBMNC; assay type: cell-based, human; conditions: 1 μg/ml LPS from Salmonella typhimurium, 10 ng/ml MDP, 1 hour; for response of PBMNC (NF-κB-DNA complex, EMSA): PBMNC from individuals homozygous for L1007fsinsC
Procedure: (§2) FIGS. 20C and D show PBMNC analyzed for expression of IL-1β (C) and A1 (D) transcripts by quantitative RT-PCR.
(§3) Genotyping was performed using a ddNTP primer extension system. Nuclear extracts from LPS-stimulated cells were pre-incubated with antibody specific for p50 subunit of NF-κB to monitor the size of the NF-κB-DNA complex. cDNA was amplified with specific primers for human IL-1β, glyceraldehyde-3-phosphate-dehydrogenase (GAPDH) as described (5) and A1 (5′-[…]-3′ (SEQ ID NO: 53) and 5′-[…]-3′ (SEQ ID NO:54)). The levels of IL-1β and A1 transcripts normalized to that of GAPDH were expressed relative to those in untreated cells that were considered as baseline. Specificity of the desired PCR products was determined by melting curve analysis. Histograms represent the mean ±S.D. of triplicate analyses.
The NOD2 variants associated with Crohn's disease, R702W, G908R and L1007fsinsC, occur on the same haplotype background, which includes the common P268S polymorphism (Hugot et al., Nature 411:599 [2001]; Ogura et al., Nature 411:603 [2001]). To compare the ability of normal and mutant NOD2 proteins to induce NF-κB activity in response to MDP, the NOD2 proteins were expressed in cells and evaluated in a functional assay. […] The role of NOD2 in the recognition of MDP by primary cells from normal and Crohn's disease patients was next determined. A panel of healthy and Crohn's disease individuals were genotyped for the disease-associated NOD2 alleles and two individuals (one without clinical evidence of disease and one individual with Crohn's disease) who were homozygous for the loss-of-function L1007fsinsC mutation were identified (FIG. 20A). The identification of apparently healthy individuals homozygous for L1007fsinsC is expected in that the penetrance of the L1007fsinsC mutation is not complete (Hugot et al., supra; Ogura et al., supra; Hampe et al., Lancet 357:1925 [2001]; Ahmad et al., Gastroenterology 122:854 [2002]). Peripheral blood mononuclear cells (PBMNC) that are known to express NOD2 were isolated, incubated with MDP or LPS and NF-κB activation was assessed in nuclear extracts by an electrophoretic mobility shift assay (EMSA).

IL-1β mRNA = experiment: Quantitative RT-PCR of IL-1β transcripts in PBMNC; assay type: cell-based, human; conditions: normal or heterozygous NOD2 alleles, LPS 1 μg/ml, MDP 10 ng/ml
Procedure: as §2, §3
(§4) To further assess NF-κB activation, the mRNA levels of EL-1β and A1, two NF-κB target genes expressed in PBMNC (Cogswell et al., J. Immunol. 153:712 [1994]; Zong et al., Genes Dev. 13:384 [1999]), were evaluated by quantitative real-time polymerase-chain reaction (RT-PCR) analysis. Both IL-1β and A1 mRNA levels were induced by incubation with LPS and MDP in cells from individuals carrying normal or heterozygous NOD2 alleles (FIG. 20C and 20D). […] Thus, PBMNC require the expression of normal NOD2 for their response to MDP but not to LPS.

A1 mRNA = experiment: Quantitative RT-PCR of A1 transcripts in PBMNC; assay type: cell-based, human; conditions: LPS 1 μg/ml, MDP 10 ng/ml
Procedure: as §2, §3, §4

T1 sequence (Q9HC29 whole entry R703H): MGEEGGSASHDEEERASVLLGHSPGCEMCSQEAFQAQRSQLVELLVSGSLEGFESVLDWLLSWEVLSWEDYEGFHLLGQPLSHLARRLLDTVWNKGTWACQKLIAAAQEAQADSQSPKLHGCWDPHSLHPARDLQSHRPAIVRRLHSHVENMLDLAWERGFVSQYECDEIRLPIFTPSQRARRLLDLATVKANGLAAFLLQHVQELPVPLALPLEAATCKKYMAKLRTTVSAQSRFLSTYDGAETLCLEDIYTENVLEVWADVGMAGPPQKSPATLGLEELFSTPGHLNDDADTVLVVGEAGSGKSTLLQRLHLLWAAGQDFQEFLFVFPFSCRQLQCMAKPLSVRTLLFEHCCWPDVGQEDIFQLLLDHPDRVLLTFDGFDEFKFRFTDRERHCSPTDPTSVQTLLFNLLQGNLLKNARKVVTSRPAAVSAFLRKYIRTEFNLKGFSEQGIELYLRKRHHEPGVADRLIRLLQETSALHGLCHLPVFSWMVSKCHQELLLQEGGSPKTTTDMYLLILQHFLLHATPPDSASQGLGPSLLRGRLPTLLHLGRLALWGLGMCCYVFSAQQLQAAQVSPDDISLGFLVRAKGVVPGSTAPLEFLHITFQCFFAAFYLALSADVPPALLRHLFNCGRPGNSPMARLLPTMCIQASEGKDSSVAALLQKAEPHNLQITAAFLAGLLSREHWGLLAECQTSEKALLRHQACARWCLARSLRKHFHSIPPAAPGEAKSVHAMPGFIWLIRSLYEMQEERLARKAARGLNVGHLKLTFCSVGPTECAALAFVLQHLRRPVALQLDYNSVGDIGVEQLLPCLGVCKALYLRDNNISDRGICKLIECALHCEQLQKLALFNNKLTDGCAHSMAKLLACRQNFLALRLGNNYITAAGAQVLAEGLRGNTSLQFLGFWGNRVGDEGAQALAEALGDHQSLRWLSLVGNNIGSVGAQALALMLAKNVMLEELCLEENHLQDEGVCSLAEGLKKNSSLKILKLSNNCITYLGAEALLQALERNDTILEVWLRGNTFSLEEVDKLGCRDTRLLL
T3 sequence (Q9HC29 whole entry P268S/R702W): as the sequence (Q9HC29 whole entry R703H) above, with P268S, R702W, H703R counted along it
T5 sequence (Q9HC29 with tags, fused parts or gaps P268S): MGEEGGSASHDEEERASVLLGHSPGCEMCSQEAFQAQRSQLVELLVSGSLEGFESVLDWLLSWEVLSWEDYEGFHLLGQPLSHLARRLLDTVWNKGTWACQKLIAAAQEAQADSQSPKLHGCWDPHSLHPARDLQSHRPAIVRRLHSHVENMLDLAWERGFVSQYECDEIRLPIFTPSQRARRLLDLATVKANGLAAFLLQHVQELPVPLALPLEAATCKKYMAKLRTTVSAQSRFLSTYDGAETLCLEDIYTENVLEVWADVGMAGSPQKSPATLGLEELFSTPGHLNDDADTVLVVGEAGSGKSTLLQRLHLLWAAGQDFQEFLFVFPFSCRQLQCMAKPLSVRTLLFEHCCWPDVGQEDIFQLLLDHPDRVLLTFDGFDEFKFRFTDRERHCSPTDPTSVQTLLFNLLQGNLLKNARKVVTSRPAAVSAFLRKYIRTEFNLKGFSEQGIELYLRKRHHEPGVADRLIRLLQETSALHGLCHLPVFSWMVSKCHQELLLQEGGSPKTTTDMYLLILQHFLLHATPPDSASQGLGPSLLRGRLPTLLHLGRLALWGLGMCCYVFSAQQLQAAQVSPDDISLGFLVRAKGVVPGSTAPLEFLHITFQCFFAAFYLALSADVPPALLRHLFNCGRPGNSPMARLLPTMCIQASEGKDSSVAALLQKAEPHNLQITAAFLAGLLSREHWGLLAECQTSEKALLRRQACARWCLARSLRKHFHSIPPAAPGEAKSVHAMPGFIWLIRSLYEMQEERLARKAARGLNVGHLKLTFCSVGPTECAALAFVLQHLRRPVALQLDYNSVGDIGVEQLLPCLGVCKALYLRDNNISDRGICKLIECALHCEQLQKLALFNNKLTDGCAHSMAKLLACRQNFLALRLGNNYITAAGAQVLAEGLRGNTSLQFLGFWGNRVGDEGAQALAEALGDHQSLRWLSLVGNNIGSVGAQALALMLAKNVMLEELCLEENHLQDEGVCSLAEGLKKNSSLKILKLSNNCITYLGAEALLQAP
T2 sequence (Q9HC29 whole entry P268S): as the sequence (Q9HC29 whole entry R703H) above, with P268S, H703R counted along it
T4 sequence (Q9HC29 whole entry P268S/G908R): as the sequence (Q9HC29 whole entry R703H) above, with P268S, H703R, G908R counted along it

CC(=O)N[C@@H]1[C@@H](O[C@H](C)C(=O)N[C@@H](C)C(=O)N[C@H](CCC(=O)O)C(N)=O)[C@H](O)[C@@H](CO)O[C@H]1O [MDP, MurNAc-L-Ala-D-isoGln]
NOD2-dependent stimulation of NF-κB by synthetic muropeptides (Nod2; HEK293T cells, 66 ng pMX-puro-NOD2 (FIG. 18B)): induced potent stimulation of NOD2; also recorded: induced Nod2-dependent activation of NF-κB
NF-κB activation in response to MDP, normal NOD2 (Nod2; HEK293T cells, 100 ng/ml MDP): induced similar levels of NF-κB activation
stimulation of NOD2 activity (Nod2; HEK293 cells, 0.3 ng pcDNA3-Nod2, MDP 100 ng/ml, sBLP 1000 ng/ml (FIG. 18D)): stimulated NOD2 activity
NF-κB activation in response to MDP, P268S NOD2 (P268S NOD2): induced similar levels of NF-κB activation
NF-κB activation in response to MDP, P268S/R702W variant compared to normal NOD2 (P268S/R702W NOD2): greatly reduced levels of NF-κB activation; also recorded: retained some ability to respond
NF-κB activation in response to MDP, P268S/G908R variant compared to normal NOD2 (P268S/G908R NOD2): greatly reduced levels of NF-κB activation
NF-κB activation in response to MDP, P268S/L1007fsinsC variant compared to normal NOD2 (P268S/L1007fsinsC NOD2): greatly reduced levels of NF-κB activation; also recorded: did not respond at all
induction of the NF-κB-DNA complex (EMSA) (NF-κB; PBMNC from individuals carrying normal or heterozygous NOD2 alleles): resulted in induction of the NF-κB-DNA complex
response of PBMNC (NF-κB-DNA complex, EMSA) (NF-κB): but not to MDP
response of PBMNC (NF-κB-DNA complex, EMSA) (NF-κB; listed as muramyl dipeptide): defective in their response
IL-1β mRNA levels (IL-1β mRNA): induced
A1 mRNA levels (A1 mRNA; homozygous for L1007fsinsC): but not MDP
A1 mRNA levels (A1 mRNA; normal or heterozygous NOD2 alleles): induced
